Laboratory results reported in US5342612A, “Compositions for the treatment of mammalian diseases” (priority 1991, dated 1994).

Legend:
[1] = system: 9C127 (T-cell hybridoma cell line); test: Toxicity of formulations on mammalian cell lines (cell viability, Coulter); format: cell-based, murine
Protocol: (§1) Cell Lines: A20: B-cell tumor cell line 9C127: T-cell hybridoma cell line LB/62287: B-cell lymphoma cell line P388.D1: Macrophage tumor cell line
(§2) Cell lines (1×10^5 /well; >85% viability) are cultured in 24 well flat bottom plates in RPMI® medium (Gibco Laboratories, Grand Island, N.Y.) supplemented with 10% fetal calf serum, streptomycin (100 μg/mL) and penicillin (100 U/mL). Cultures are incubated (37° C., 10% CO2) with the following concentrations of vehicles:
(§3) c) 1.0%, 0.1% or 0.01% Triacetin or IMWITOR®
(§4) After a 72 hour or 6 hour incubation period, cells are harvested and counted by the Coulter Counter (Northwell Drive, England). Cell viability is determined using a Coulter Channelyzer.
(§5) The relative toxicity of the sample formulations to estimate the relative degree of toxicity for in vivo administration is carried out in vitro with the mammalian cell lines. Various concentrations of the vehicles are incubated for either 6 or 24 hours with the different mammalian cell lines. Immediate toxicity is evaluated at 6 hours by quantitating the number of dead cells in treated wells as compared to the untreated controls. Long term toxicity effects as well as effects which may inhibit cell growth are evaluated by measuring the relative degree of proliferation after an additional 48 hours incubation with ^3 H-thymidine.

[2] = system: A20 (B-cell tumor cell line); test: as above; format: cell-based, murine
Protocol: as §1, §2, §3, §4, §5

[3] = system: P388.D1 (Macrophage tumor cell line); test: in vitro; format: cell-based, murine
Protocol: as §1, §2, §3, §4, §5

[4] = system: S. aureus mastitis; conditions: Oldham et al.; in words; cited from earlier work
[5] = system: Staphylococcus aureus (Newbould 305); test: Potentiation of lysostaphin bacteriostatic activity (minimum inhibitory concentration); format: cell-based; conditions: in saline, diluted in MHB
Protocol: Dissolved in 15% w/v poloxamer 407 NF is 512 μg/mL of lysostaphin by adding 487.4 μl of a 2.5 mg/mL aqueous solution to 1512.6 μl of the 15% w/v poloxamer 407 NF in sPBS. The lysostaphin is first filtered through a 0.22 μ filter and the concentration is adjusted (1.19 factor). The poloxamer 407 NF is mixed overnight and filtered through a 0.22μ cellulose acetate filter. In a similar fashion, preparations with other vehicles such as lysostaphin in triacetin are prepared.
Lysostaphin in Mueller-Hinton Broth is run as a control and a 512 μg/mL solution is prepared from the same 2.5 mg/mL solution as the poloxamer 407 NF mixture. Placed in 189 μl of Mueller-Hinton Broth is 61 μl of the 2.5 mg/mL solution.
Placed in the first well of a 12 well row is 100 μl of each mixture and serial two-fold dilutions are performed in Mueller-Hinton Broth through row 12. Following dilution, 50 μl of inoculum is added to each well. Inoculum is prepared by inoculating a tube of trypticase soy broth (TSB) from an overnight trypticase soy agar (TSA) culture containing a 10% sheep blood plate of Staphylococcus aureus (Newbould 305). The tube is incubated for 5 hours at 37° C. with constant agitation. […]
The inhibitory profile as measured by the reduction of the optical density at 650 nm in the presence of the vehicle is then compared to that of lysostaphin diluted in Mueller-Hinton Broth. […]

[6] = system: S. aureus; test: Potentiation of lysostaphin bactericidal activity (minimum bactericidal concentration assay, survival of S. aureus); format: cell-based, Staphylococcus aureus; conditions: 18 h
Protocol: Preparation of 50% glycerol and 15% poloxamer 407 NF plus lysostaphin is as follows: The lysostaphin stock of 2.5 mg/mL is thawed and filtered through a 0.22μ filter. [formula]
In a similar fashion, triacetin solutions are also prepared.
Mueller-Hinton Broth containing lysostaphin is prepared as above. Penicillin in Mueller-Hinton Broth is prepared to serve as a control. Starting with a frozen 2.5 mg/mL stock solution the penicillin is diluted as follows: 400 μl of 2.5 mg/mL is placed in 600 μl of Mueller-Hinton Broth to yield a 1000 μg/mL solution. Added to 3744 μl of Mueller-Hinton Broth is 256 μl of the 1000 μg/mL solution to yield a 64 μg/mL solution.
Placed in sterile tubes are 2 mL of the vehicle and lysostaphin; Mueller-Hinton Broth plus lysostaphin; and Mueller-Hinton Broth plus penicillin. Serial two-fold dilutions are performed by hand using 1 mL of the appropriate vehicle as the diluent. Lysostaphin and penicillin dilutions range from 64 μg/mL to 0.25 μg/mL. All combinations are done in duplicate. The Staphylococcus aureus is grown for 5 hours in 5 mL of TSB and 0.1 mL is removed and placed in 9.9 mL of saline. Each tube is inoculated with 100 μl of the diluted culture. Plate counts are performed on the inoculum. All tubes are incubated for 18 hours at 37° C. with constant agitation. Following incubation, each dilution of lysostaphin in the vehicles or Mueller-Hinton Broth and penicillin in Mueller-Hinton Broth is diluted in phosphate buffered saline to 10^-2, 10^-4 and 10^-6.
Plated on a TSA with 10% sheep blood is 100 μl of the undilute and of each dilution. The plates are inverted and incubated for 18 hours. Following incubation, the number of colonies on each plate is counted.
The vehicles which inhibit the growth or are moderately bactericidal to S. aureus by themselves are unable to be evaluated using the MIC procedure. For these vehicles a minimum bactericidal concentration assay (MBC) is performed. This assay in conjunction with the previous MIC data distinguish bacteriostatic effects versus bactericidal effects of the vehicles. Various formulations are mixed with lysostaphin at a final concentration of 32 μg/mL. Ten, serial two- or four-fold dilutions of the lysostaphin are performed in the vehicle and each tube inoculated with a 2-6 x's 106 S. aureus CFU's (bacterial colony-forming units). Samples are removed after 18 hours and plated on blood agar plates.

[7] = lysostaphin (or penicillin) 1 μg/mL
[8] = lysostaphin (or penicillin) 4 μg/mL

Substance	Relative Toxicity at 6 Hours [1]	Relative Toxicity at 6 Hours [2]	Relative Toxicity at 6 Hours [3]	Therapeutic efficacy compared with CEFA-LAK [4]	Control MIC of lysostaphin ([5]; control of the PLURONIC F127 line)	Control MIC of lysostaphin ([5]; control of the triacetin line)	Survival of S. aureus CFU (Log 10) in Vehicles ([6]; lysostaphin 0.25 μg/mL)	Killing of S. aureus (footnote class) ([6]; lysostaphin 2 μg/mL)	Survival of S. aureus CFU (Log 10) in Vehicles ([6]; lysostaphin 2 μg/mL)	Killing of S. aureus (footnote class) ([6]; lysostaphin 8 μg/mL)	Survival of S. aureus CFU (Log 10) in Vehicles ([6]; lysostaphin (or penicillin) 0.5 μg/mL)	Killing of S. aureus (footnote class) [6, 7]	Survival of S. aureus CFU (Log 10) in Vehicles [6, 7]	Killing of S. aureus (footnote class) [6, 8]	Survival of S. aureus CFU (Log 10) in Vehicles [6, 8]	Survival of S. aureus CFU (Log 10) in Vehicles ([6]; lysostaphin (or penicillin) 8 μg/mL)
PLURONIC ® F 127	-	-	-													
Lysostaphin: gene product of Staphylococcus simulans, enzymatically degrading the polyglycine crosslinks of the cell wall				not equivalent to the commercially available product CEFA-LAK®	0.125	1.0	9.7 CFU (Log 10)	^3 (Greater than 99.99% killing of S. aureus)	3.6 CFU (Log 10)	^3 (Greater than 99.99% killing of S. aureus)	8.6 CFU (Log 10)	^2 (Greater than 95% killing of S. aureus)	8.1 CFU (Log 10)	^3 (Greater than 99.99% killing of S. aureus)	4.8 CFU (Log 10)	3.3 CFU (Log 10)
